Test results reported in patent publication US20150018566A1, “TUBULIN BINDING AGENTS” (priority 2011, published 2015).

Assays:
[1] = system: HUVECs; test: Immunofluorescence staining of the microtubule; assay type: cell-based, human; conditions: 1 μM, 30 minutes, α-tubulin staining
Description: In order to confirm that test compounds are able to interfere with cells' tubulin cytoskeleton, immunofluorescence staining was performed. The effect of test compounds on the tubulin reorganization was visualised by staining of microtubules using an α-tubulin antibody and the cell nuclei using 4′,6-diamidino-2-phenylindole (DAPI).
The effect of the compounds on the microtubule disruption was examined by staining for α-tubulin. Sterile cover slips were placed in each well of a 6-well plate and 1×10^6 cells/ml (1 ml) HUVECs were seeded and allowed to attach on the cover slips overnight at 37° C. The following day the medium was removed from the wells, replaced by 1 μM of test compounds diluted in medium and incubated for 30 minutes at 37° C. Next, the medium was removed and the cells were fixed in pre-cooled methanol (1 ml) at −20° C. for 30 minutes. Then, the cells were washed twice with 1 ml PBS (5 minutes each time). The primary monoclonal antibody for a-tubulin was diluted in PBS (1:200) and added (1 ml) in each well for 1 h at room temperature (RT). After that, the cells were washed three times with 1 ml PBS and incubated with 1 ml of secondary Alexa Fluor 488 antibody diluted in PBS (1:1000) for 30 minutes at RT in the dark. The cells were washed for a further three times with 1 ml PBS and allowed to air-dry for 10 minutes. The cover slips containing the attached cells were mounted on microscopy slides using ProLong® gold antifade reagent with DAPI (for nuclear staining) and stored at 4° C. until time for analysis. Images were taken using an Olympus FV1000 Point Scanning Confocal Microscope provided by the Department of Biochemistry, TCD. Experiments were performed in duplicate at two independent times. The results were presented as images of the microtubule disruption of endothelial cells.

[2] = system: rat aortic ring cultures; test: Aortic ring assay (anti-vascular model); assay type: cell-based; conditions: for anti-vascular effect on existing microvessel network: 100 nM
Description: The aortic ring assay is an ideal assay for testing the activity of anti-vascular, anti-angiogenic or pro-angiongenic agents. This method was originally developed and modified by Nicosia. The aorta can be excised from mice or rats, cut into ˜1 mm rings and cultured in either basement membrane matrix (matrigel) or collagen gel. Following incubation for several days the rings start to generate outgrowths of branching microvessels which are lined by endothelial cells and supported by pericytes and fibroblasts. The angiogenic response of the aorta is a self-limited process regulated by endogenous growth factors including bFGF [13], VEGF [14], PDGF [15] and angiopoietins.
The rat aorta model is an ex vivo assay which combines advantages of both in vitro and in vivo models. The process of angiogenesis takes place in a defined culture environment which can be easily adapted to different experimental conditions according to the requirement of the study. The cells of the aortic outgrowth have not been modified by repeated passages in culture and thus newly formed microvessels reproduce the characteristics of the vasculature formed during angiogenesis in vivo [17-18]. There is no influx of leukocytes from circulating blood therefore inflammatory complications which affect the interpretation of in vivo assays are minimised. For the purpose of this study, rat aortic ring cultures were used to investigate firstly the anti-vascular and then the anti-angiogenic activity of test compounds.
The successful growth of the aortic rings into a mircovessel network was dependent on several factors including (i) the amount of periaortic fibroadipose tissue left on the ring, (ii) the orientation of the ring, the way which the ring was embedded into the matrigel and (iii) the volume of the matrigel used.
The aortic ring assay is an ex vivo assay which allows the analyst to examine the inhibition/stimulation of angiogenesis as well as the breakdown of existing vasculature. Basement membrane matrix (matrigel) was stored at −20° C. Prior to use, matrigel vial was placed on ice and kept at 4° C. overnight in order to thaw. The matrigel was kept on ice at all times for the duration of the experiment. Aortic rings were obtained by excising the thoracic aorta of 5-10 weeks old Wistar male rats and removing the fibroadipose tissue from the aortic wall. The rings were obtained by cross-sectioning the aorta at ˜1 mm intervals, removed any blood clots by washing several times with EBM-2. Matrigel (80 μl) was placed uniformly in each well of a 12-well plate and the aortic rings were then placed individually in between the matrigel layer with the lumen perpendicular to the surface of the plate. The matrigel solution was allowed to solidify for 30-40 minutes at 37° C. and 1 ml EBM-2 medium (supplemented with 2% FBS and […] streptomycin/penicillin solution) was added to each culture. The aortic rings were kept in a humidified CO2 incubator at 37° C. and fresh medium was replaced three times a week starting from day 3. Once an established microvessel network was developed (day 7-9), test compounds diluted in EBM-2 medium (1 ml) were added to each well and incubated at 37° C. for 24 h. The cultures were monitored for microvessel breakdown over time and images were taken 1 h, 4 h and 24 h after treatment using an Olympus CKX41 inverted microscope. Images were captured with an E-330 SLR camera system and processed using Cell̂ A software. Each compound concentration was tested in duplicate. Results were presented as images showing the microvessel breakdown at each time point.

[3] = system: HUVECs; test: Analysis of endothelial cell morphology; assay type: cell-based, human; conditions: for effect on endothelial cell morphology: 40 minutes exposure; for reversibility of the morphology effect: 3 h after drug washout
Description: Tubulin inhibitors are not only known for their anti-mitotic effect but also for their anti-vascular activity. Treatment with such agents was previously shown to cause vascular shutdown independently of a direct cytotoxic effect on tumour cells. […] The 1 h incubation period (after drug washout) aimed to identify any observable morphological changes of endothelial cells; however the 3 h incubation period served to indicate any signs of reversibility of this effect.
The effect of test compounds on endothelial cells' morphology was examined. 1×10^6 cells/ml HUVECs (1 ml) were seeded into 6-well plates and incubated overnight at 37° C. The next day, the medium was removed and replaced by control solutions (0.1% DMSO in medium) and test compounds diluted in fresh medium. The cells were incubated for 40 minutes at 37° C. Following that, each well was washed with medium to remove detached cells and incubated with fresh medium for a further 1 h or 3 h at 37° C. Next, the medium was removed and 0.5% crystal violet solution was prepared in 20% ethanol and 1 ml was added in each well for 15 minutes at RT. The wells were then washed 3 times with d. water (5 minutes each time). Wells were allowed to air dry and cell morphology was examined under an Olympus CKX41 inverted microscope using a x4 objective. Images were captured with an E-330 SLR camera system 1 h and 3 h after the washout of compounds. Digital images were processed using Cell̂ A software (Mason Technology, Ireland). The experiments were performed in triplicate and the results were presented as images of the morphological changes of endothelial cells after 1 h and 3 h of drug washout.

[4] = system: rat aortic ring cultures; test: Aortic ring assay (anti-angiogenic effect); assay type: cell-based

SMILES	microtubule disruption [1]	anti-vascular effect on existing microvessel network ([2]; 4 h of treatment)	anti-vascular effect on existing microvessel network ([2]; 24 h of treatment)	effect on endothelial cell morphology ([3]; 0.1 μM)	reversibility of the morphology effect [3]	anti-angiogenic effect (microvessel formation) ([4]; 1 nM)	anti-angiogenic effect (microvessel formation) ([4]; 10 nM)	anti-angiogenic effect (microvessel formation) ([4]; 100 nM)	anti-angiogenic effect (microvessel formation) ([4]; 50 nM)	anti-vascular effect on established microvessel network ([2]; 0.1 μM)	anti-vascular effect on established microvessel network ([2]; 1 μM, 24 h incubation)	effect on endothelial cell morphology ([3]; 1 μM)	anti-vascular effect on established microvessel network ([2]; 1 nM)	anti-vascular effect on established microvessel network ([2]; 10 nM)	anti-vascular effect on established microvessel network ([2]; 50 nM, 4 h of treatment)	anti-vascular effect on established microvessel network ([2]; 50 nM, 24 h)
COc1ccc(C2=CC(=O)CCc3c2cc(OC)c(OC)c3OC)cc1O [Compound 1, (Z)-8,9-dihydro-5-(3-hydroxy-4-methoxyphenyl)-1,2,3-trimethoxybenzo[7]annulen-7-one]	Microtubule disruption was observed	evident changes in the microvessels' structure	greater disruption	modifying the cells' structure	cells regained their shape	no inhibitory effect	significantly (p<0.01) inhibited the formation of microvessels	significantly (p<0.01) inhibited the formation of microvessels								
COc1ccc(C2=CC(=O)CCc3c2cc(OC)c(OC)c3OC)cc1N [Compound 28, 2-methoxy-5-(2,3,4-trimethoxy-7-oxo-6,7-dihydro-5H-benzo[7]annulen-9-yl)benzenaminium chloride]	Microtubule disruption was observed	evident changes in the microvessels' structure	greater disruption	modifying the cells' structure	cells regained their shape		did not demonstrate a decrease in microvessel formation	complete growth inhibition	complete growth inhibition							
COc1ccc(C2=CC(=O)CCc3c2cc(OC)c(OC)c3OC)cc1OC(=O)C(CC(C)C)NC(=O)C(O)C(N)Cc1ccccc1.Cl (stereo not shown) [Compound 44]	induce microtubule disruption			minor effect	reversible effect		slight decrease	significant (p<0.05) reduction		did not result in a clear anti-vascular effect	apparent microvessel breakdown	cell monolayer was disturbed				
COc1ccc(C2=CC(=O)COc3c2cc(OC)c(OC)c3OC)cc1OC(=O)C(CC(C)C)NC(=O)C(O)C(N)Cc1ccccc1.Cl (stereo not shown) [Compound 45, 2-methoxy-5-(7,8,9-trimethoxy-3-oxo-2H-1-benzoxepin-5-yl)phenyl 2-(3-amino-2-hydroxy-4-phenylbutanamido)-4-methylpentanoate]	disruption of microtubule organisation			severe effect	did not seem to regain their original shape		insignificantly decreased		almost complete inhibition			severe effect	did not demonstrate any obvious anti-vascular activity	did not demonstrate any obvious anti-vascular activity	sufficient to disrupt the microvessel network	more evident
